Measured values reported in ChEMBL document CHEMBL5247655, “Simplified Derivatives of Tetrandrine as Potent and Specific P-gp Inhibitors to Reverse Multidrug Resistance in Cancer Chemotherapy” (J Med Chem, 2023).
≈ marks a conversion by molar mass, not a printed value. Calls of active or inactive are those of the source. The rule behind the calls is not given here.

What was measured:
[1] = Cytotoxicity against human LX2 cells incubated for 48 hrs by CCK-8 method; assay type: toxicity, cell-based, LX-2
[2] = target: T1, ATP-dependent translocase ABCB1 (Homo sapiens, UniProt P08183); assay: Inhibition of P-gp efflux in vincristine resistant human Eca-109 cells assessed as increase in intracellular accumulation of rhodamine123 at 1 to 5 uM incubated for 1 hr by flow cytometry analysis; assay type: cell-based; conditions: eca-109, 1 h, dose 1-5 µM
ECa-109 cell line [3] = assay: Induction of apoptosis in vincristine resistant human Eca-109 cells assessed as early apoptotic cells at 1 uM incubated for 24 hrs in presence of vincristine by AnnexinV-FITC/PI staining based flow cytometric analysis (reference value: 4.43%); assay type: functional
ECa-109 cell line [4] = assay: Induction of apoptosis in vincristine resistant human Eca-109 cells assessed as late apoptotic cells at 2.5 uM incubated for 24 hrs in presence of vincristine by AnnexinV-FITC/PI staining based flow cytometric analysis (reference value: 6.01%); assay type: functional
[5] = AUC (0 to infinity) in Sprague-Dawley rat at 3 mg/kg, iv measured upto 24 hrs by UPLC/MS/MS analysis; assay type: ADME, organism-based; set-up: time < 24 hrs, dose 3 mg/kg, route iv; conditions: in vivo
[6] = Terminal elimination half life in Sprague-Dawley rat at 30 mg/kg, po measured upto 24 hrs by UPLC/MS/MS analysis; assay type: ADME, organism-based; conditions: in vivo, read-out: LambdaZ (converted)
[7] = Apparent volume of distribution during terminal phase in Sprague-Dawley rat at 3 mg/kg, iv measured upto 24 hrs by UPLC/MS/MS analysis; assay type: ADME, organism-based; conditions: in vivo
ECa-109 cell line [8] = assay: Induction of apoptosis in vincristine resistant human Eca-109 cells assessed as necrotic cells at 2.5 uM incubated for 24 hrs by AnnexinV-FITC/PI staining based flow cytometric analysis (reference value: 0.25%); assay type: functional
[9] = Apparent oral clearance in Sprague-Dawley rat at 30 mg/kg, po measured upto 24 hrs by UPLC/MS/MS analysis; assay type: ADME, organism-based; conditions: in vivo
[10] = Solubility of the compound in water at 25 degree C by shake flask method based UV-spectrophotometric method; assay type: physicochemical
[11] = Apparent oral clearance in Sprague-Dawley rat at 3 mg/kg, iv measured upto 24 hrs by UPLC/MS/MS analysis; assay type: ADME, organism-based; conditions: in vivo
[12] = Half life in Sprague-Dawley rat at 3 mg/kg, iv measured upto 24 hrs by UPLC/MS/MS analysis; assay type: ADME, organism-based; conditions: in vivo
ECa-109 cell line [13] = assay: Synergistic antitumor activity against in vincristine resistant p-gp overexpressing human Eca-109 cells xenografted in nude mouse assessed as inhibition of tumor growth rate at 30 mg/kg, IG administered every two days for 21 days in presence of vincristine relative to control; assay type: functional; set-up: scale not given: the % may be the effect or the level left; conditions: time 21 day
[14] = target: T1, ATP-dependent translocase ABCB1; assay: Inhibition of P-gp efflux in vincristine resistant human Eca-109 cells assessed as increase in colocalization of dox with nucleus at 1 to 5 uM incubated for 3 hrs by DAPI staining based laser-scanning confocal microscopy analysis; assay type: cell-based; conditions: eca-109, 3 h, dose 1-5 µM
[15] = target: T1, ATP-dependent translocase ABCB1; assay: Inhibition of P-gp efflux in vincristine resistant human Eca-109 cells assessed as effect on accumulation of rhodamine123; assay type: cell-based
[16] = target: T1, ATP-dependent translocase ABCB1; assay: Inhibition of P-gp efflux in vincristine resistant human Eca-109 cells assessed as increase in rhodamine 123 accumulation incubated for 3 hrs by DAPI staining based laser-scanning confocal microscopy analysis; assay type: cell-based; conditions: eca-109, 3 h, at 1 to 5 µM, dose 1-5 µM
[17] = target: Multidrug resistance-associated protein 1 (Homo sapiens, UniProt P33527); assay: Binding affinity to MRP1 in vincristine resistant human Eca-109 cells assessed as stabilization of protein at 100 uM incubated for 30 mins by thermal shift assay; assay type: cell-based; conditions: eca-109, 0.5 h
ECa-109 cell line [18] = assay: Induction of apoptosis in vincristine resistant human Eca-109 cells assessed as late apoptotic cells at 2.5 uM incubated for 24 hrs by AnnexinV-FITC/PI staining based flow cytometric analysis (reference value: 7.19%); assay type: functional
ECa-109 cell line [19] = assay: Induction of apoptosis in vincristine resistant human Eca-109 cells assessed as viable cells at 5 uM incubated for 24 hrs by AnnexinV-FITC/PI staining based flow cytometric analysis (reference value: 90.3%); assay type: functional; conditions: read-out: Activity
ECa-109 cell line [20] = assay: Synergistic antitumor activity against in vincristine resistant p-gp overexpressing human Eca-109 cells xenografted in nude mouse assessed as reduction in tumor weight at 30 mg/kg, IG administered every two days for 21 days in presence of vincristine by caliper method; assay type: functional, organism-based; conditions: time 21.0 day
[21] = Half life in Sprague-Dawley rat at 30 mg/kg, po measured upto 24 hrs by UPLC/MS/MS analysis; assay type: ADME, organism-based; conditions: in vivo
ECa-109 cell line [22] = assay: Induction of apoptosis in vincristine resistant human Eca-109 cells assessed as necrotic cells at 1 uM incubated for 24 hrs by AnnexinV-FITC/PI staining based flow cytometric analysis (reference value: 0.25%); assay type: functional
[23] = AUMC (0 to infinity) in Sprague-Dawley rat at 3 mg/kg, iv measured upto 24 hrs by UPLC/MS/MS analysis; assay type: ADME, organism-based; conditions: in vivo
[24] = Cmax in Sprague-Dawley rat at 30 mg/kg, po measured upto 24 hrs by UPLC/MS/MS analysis; assay type: ADME, organism-based; set-up: time < 24 hrs, dose 30 mg/kg, route po; conditions: in vivo
[25] = Toxicity in nude mouse assessed as change in body weight at 30 mg/kg administered every 2 days for 21 days; assay type: organism-based; conditions: in vivo, 48 h, time 2 day
[26] = MRT (0 to infinity) in Sprague-Dawley rat at 3 mg/kg, iv measured upto 24 hrs by UPLC/MS/MS analysis; assay type: ADME, organism-based; conditions: in vivo
[27] = Terminal elimination half life in Sprague-Dawley rat at 3 mg/kg, iv measured upto 24 hrs by UPLC/MS/MS analysis; assay type: ADME, organism-based; conditions: in vivo, read-out: LambdaZ (converted)
ECa-109 cell line [28] = assay: Induction of apoptosis in vincristine resistant human Eca-109 cells assessed as early apoptotic cells at 5 uM incubated for 24 hrs in presence of vincristine by AnnexinV-FITC/PI staining based flow cytometric analysis (reference value: 4.43%); assay type: functional
ECa-109 cell line [29] = assay: Induction of apoptosis in vincristine resistant human Eca-109 cells assessed as necrotic cells at 5 uM incubated for 24 hrs by AnnexinV-FITC/PI staining based flow cytometric analysis (reference value: 0.25%); assay type: functional
ECa-109 cell line [30] = assay: Induction of apoptosis in vincristine resistant human Eca-109 cells assessed as early apoptotic cells at 2.5 uM incubated for 24 hrs by AnnexinV-FITC/PI staining based flow cytometric analysis (reference value: 2.30%); assay type: functional
ECa-109 cell line [31] = assay: Reversal of VCR -resistance in human Eca-109 cells assessed as cell viability at 5 uM incubated for 48 hrs by CCK-8 method (reference value: 6830.0+/-537.0 nM); assay type: functional, cell-based; conditions: ECa-109, 48 h
ECa-109 cell line [32] = assay: Synergistic antitumor activity against in vincristine resistant p-gp overexpressing human Eca-109 cells xenografted in nude mouse assessed as increase in vacuoles at 30 mg/kg, IG administered every two days for 21 days in presence of vincristine by TUNEL analysis; assay type: functional, organism-based; conditions: time 21.0 day
ECa-109 cell line [33] = assay: Induction of apoptosis in vincristine resistant human Eca-109 cells assessed as necrotic cells at 5 uM incubated for 24 hrs in presence of vincristine by AnnexinV-FITC/PI staining based flow cytometric analysis (reference value: 0.35%); assay type: functional
ECa-109 cell line [34] = assay: Cytotoxicity against vincristine resistant human Eca-109 cells incubated for 48 hrs by CCK-8 method; assay type: functional, cell-based; conditions: ECa-109, 48 h

T1 sequence (P08183 whole entry): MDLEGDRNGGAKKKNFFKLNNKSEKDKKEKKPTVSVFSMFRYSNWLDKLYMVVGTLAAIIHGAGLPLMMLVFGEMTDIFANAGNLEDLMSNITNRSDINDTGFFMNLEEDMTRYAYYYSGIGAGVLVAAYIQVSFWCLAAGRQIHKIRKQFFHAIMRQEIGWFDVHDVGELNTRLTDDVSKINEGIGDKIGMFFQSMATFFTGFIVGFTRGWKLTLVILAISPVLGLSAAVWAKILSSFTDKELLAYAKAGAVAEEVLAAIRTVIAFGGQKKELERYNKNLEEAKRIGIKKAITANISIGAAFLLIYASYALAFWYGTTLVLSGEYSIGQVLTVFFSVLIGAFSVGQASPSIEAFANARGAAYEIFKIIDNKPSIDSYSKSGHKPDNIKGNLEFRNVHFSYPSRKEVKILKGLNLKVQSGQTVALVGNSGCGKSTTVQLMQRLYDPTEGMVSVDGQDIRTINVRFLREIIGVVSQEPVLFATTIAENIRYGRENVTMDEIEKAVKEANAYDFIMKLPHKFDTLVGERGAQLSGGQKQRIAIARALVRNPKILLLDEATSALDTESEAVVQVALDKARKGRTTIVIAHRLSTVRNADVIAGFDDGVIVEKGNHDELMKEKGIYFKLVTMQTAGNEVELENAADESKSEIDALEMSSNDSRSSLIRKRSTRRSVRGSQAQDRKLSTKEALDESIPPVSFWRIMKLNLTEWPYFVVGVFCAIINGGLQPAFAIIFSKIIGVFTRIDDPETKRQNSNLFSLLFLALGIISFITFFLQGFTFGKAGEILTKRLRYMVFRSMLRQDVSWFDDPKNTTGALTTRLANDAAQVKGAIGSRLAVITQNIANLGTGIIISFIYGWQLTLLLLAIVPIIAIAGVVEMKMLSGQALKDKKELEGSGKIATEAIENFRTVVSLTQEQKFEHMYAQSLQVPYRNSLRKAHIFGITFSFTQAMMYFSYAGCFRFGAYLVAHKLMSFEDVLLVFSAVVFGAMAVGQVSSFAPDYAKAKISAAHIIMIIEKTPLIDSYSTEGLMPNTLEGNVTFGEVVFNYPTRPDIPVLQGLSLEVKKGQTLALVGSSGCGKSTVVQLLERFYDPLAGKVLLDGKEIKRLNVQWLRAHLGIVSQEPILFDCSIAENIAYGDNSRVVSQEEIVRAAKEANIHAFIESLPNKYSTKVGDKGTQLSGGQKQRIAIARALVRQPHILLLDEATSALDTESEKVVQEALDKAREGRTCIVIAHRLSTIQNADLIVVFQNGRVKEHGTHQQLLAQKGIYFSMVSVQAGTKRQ
Multidrug resistance-associated protein 1, sequence (P33527 whole entry): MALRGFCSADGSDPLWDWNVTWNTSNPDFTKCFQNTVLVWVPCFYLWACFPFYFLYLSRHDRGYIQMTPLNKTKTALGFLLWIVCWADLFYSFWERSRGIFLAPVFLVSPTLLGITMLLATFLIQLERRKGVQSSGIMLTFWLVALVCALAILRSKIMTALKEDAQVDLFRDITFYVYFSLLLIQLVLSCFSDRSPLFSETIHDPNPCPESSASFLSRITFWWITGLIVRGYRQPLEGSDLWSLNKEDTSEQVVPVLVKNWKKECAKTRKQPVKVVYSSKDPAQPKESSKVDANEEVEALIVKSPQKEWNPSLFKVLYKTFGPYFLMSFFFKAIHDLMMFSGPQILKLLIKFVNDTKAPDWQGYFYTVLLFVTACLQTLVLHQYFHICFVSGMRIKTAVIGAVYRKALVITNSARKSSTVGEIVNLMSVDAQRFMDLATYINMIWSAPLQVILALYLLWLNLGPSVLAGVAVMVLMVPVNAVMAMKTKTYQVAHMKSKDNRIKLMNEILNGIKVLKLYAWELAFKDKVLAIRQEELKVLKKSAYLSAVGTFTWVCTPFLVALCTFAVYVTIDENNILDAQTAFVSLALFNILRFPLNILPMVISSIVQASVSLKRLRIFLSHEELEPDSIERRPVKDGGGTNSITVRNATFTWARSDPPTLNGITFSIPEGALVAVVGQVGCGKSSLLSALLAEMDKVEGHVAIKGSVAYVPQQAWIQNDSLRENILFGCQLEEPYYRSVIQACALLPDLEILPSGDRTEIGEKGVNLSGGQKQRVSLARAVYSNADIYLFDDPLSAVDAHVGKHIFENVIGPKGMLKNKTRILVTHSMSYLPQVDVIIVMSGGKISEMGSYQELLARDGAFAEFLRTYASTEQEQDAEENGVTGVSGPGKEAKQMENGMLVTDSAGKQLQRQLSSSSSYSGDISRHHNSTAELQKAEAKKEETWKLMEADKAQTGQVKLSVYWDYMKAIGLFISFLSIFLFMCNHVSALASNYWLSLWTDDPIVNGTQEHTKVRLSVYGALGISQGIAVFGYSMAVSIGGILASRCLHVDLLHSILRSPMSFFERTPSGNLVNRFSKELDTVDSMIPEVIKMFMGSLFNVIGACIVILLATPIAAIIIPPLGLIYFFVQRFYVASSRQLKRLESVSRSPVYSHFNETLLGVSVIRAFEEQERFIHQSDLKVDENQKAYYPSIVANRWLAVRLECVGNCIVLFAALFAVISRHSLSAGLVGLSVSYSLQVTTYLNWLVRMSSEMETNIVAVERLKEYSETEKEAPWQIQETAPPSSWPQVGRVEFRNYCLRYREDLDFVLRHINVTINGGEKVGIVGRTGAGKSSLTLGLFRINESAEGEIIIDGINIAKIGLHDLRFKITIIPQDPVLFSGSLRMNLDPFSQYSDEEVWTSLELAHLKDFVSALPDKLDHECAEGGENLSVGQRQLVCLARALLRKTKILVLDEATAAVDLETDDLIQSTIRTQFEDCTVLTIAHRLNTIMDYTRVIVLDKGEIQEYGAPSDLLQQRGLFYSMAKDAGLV

COc1cc2c(cc1OC)C(Cc1ccc(OC)c(OCc3ccccc3)c1)N(C)CC2 (centres undefined)
IC50 at 48 h [1]: > 50 µM | inhibition (INH) [2]: Active | Activity (ECa-109 cell line [3]): 14.9% | Activity (ECa-109 cell line [4]): 11.3% | AUC(0-inf) [5]: 2740 ng·h/mL | k el at 24 h [6]: 3.33e-05 s⁻¹ | Vz/F [7]: 12.84 L/kg | Activity (ECa-109 cell line [8]): 0.11% | CL/F [9]: 186 mL/min/kg | solubility thermodynamic [10]: 68 µg/mL (≈ 157 µM) | CL/F [11]: 18.3 mL/min/kg | half-life [12]: 8.43 h | Activity (ECa-109 cell line [13]): 79.13% | inhibition (INH) [14]: Active | inhibition (INH) [15]: Active | inhibition (INH) [16]: Dose-Dependent Effect | Activity [17]: Not Active | Activity (ECa-109 cell line [18]): 5.69% | viability at 5 µM (ECa-109 cell line [19]): 90.8% | Activity (ECa-109 cell line [20]): Active | half-life [21]: 7.37 h | Activity (ECa-109 cell line [22]): 0.15% | AUMC [23]: 7391.35 ng/mL.hr^2 | Cmax [24]: 637 ng/mL | Activity [25]: Non-Toxic | MRT inf [26]: 2.68 h | k el at 24 h [27]: 4.17e-05 s⁻¹ | Activity (ECa-109 cell line [28]): 24.9% | Activity (ECa-109 cell line [29]): 0.14% | Activity (ECa-109 cell line [30]): 2.26% | IC50 (ECa-109 cell line [31]): 0.0099 µM | Activity (ECa-109 cell line [32]): Active | Activity (ECa-109 cell line [33]): 0.62% | IC50 (ECa-109 cell line [34]): > 100 µM
